The values below come from article PMC9447987, “Long-term memory CD8^+ T cells specific for SARS-CoV-2 in individuals who received the BNT162b2 mRNA vaccine” (Nature Communications, 2022).

Read-outs that look alike come from different tables or passages of the source.

Assay [1] deals with HLA-A*24:02-restricted CD8+ T cells. It counts as cell-based, human.
A further assay deals with HLA-A*24:02 (Homo sapiens, UniProt P04439, D101N/D140Y/D185E/E176V/E190D/F33S/G103R/G107R/I119L/I121M/I306V/K335N/L105A/L180Q/L300P/N151K/N90K/Q86E/Q94H/R106L/R138H/R89G/T104I/T345S/V100E/W191G/Y123F). The assay can be described thus: HLA stabilization assay using RMA-S-A2402 cells. The following applies: for MFI, HLA-A2402 (APC), representative staining: RMA-S-A2402 cells. The assay is classed as binding.

The test system of assay [2] is HLA-A*24:02-peptide complexes. The assay can be described thus: Peptide–MHC Complex Dissociation Assay using RMA-S-A2402 cells. It counts as binding, human. To be noted: for % Mean Fluoresence: Fig.7d; for stability of the HLA-A*24:02-peptide complex (in words): RMA-S-A2402 cells, 10 μM peptide, 0, 1, 2 and 4 h.
[3] abbreviates: 13 HLA-A*24:02+ individuals, C1R-A2402 pre-pulsed with 1 nM peptide.
Where [4] appears, read: Suppl. Fig. 3d (for Fig. 7c), peptide(-) 11.3, 26 °C (Maximum) 24.0.
Setting [5] is: post-incubation 0 hour, replicate 1.
[6] abbreviates: post-incubation 0 hour, replicate 2.
The mark [7] stands for this setting: post-incubation 0 hour, replicate 3.
Setting [8] is: post-incubation 1 hour, replicate 1.
The mark [9] stands for this setting: post-incubation 1 hour, replicate 2.
The mark [10] stands for this setting: post-incubation 1 hour, replicate 3.
[11] abbreviates: post-incubation 2 hour, replicate 1.
The mark [12] stands for this setting: post-incubation 2 hour, replicate 2.
The mark [13] stands for this setting: post-incubation 2 hour, replicate 3.
Where [14] appears, read: post-incubation 4 hour, replicate 1.
[15] abbreviates: post-incubation 4 hour, replicate 2.
Where [16] appears, read: post-incubation 4 hour, replicate 3.
Where [17] appears, read: convalescent donor C2, 45.290 weeks since PCR-confirmed diagnosis, peptide-pulsed C1R-A2402.
The mark [18] stands for this setting: convalescent donor C3, 2.430 weeks since PCR-confirmed diagnosis, peptide-pulsed C1R-A2402.
Setting [19] is: convalescent donor C4, 35.000 weeks since PCR-confirmed diagnosis, peptide-pulsed C1R-A2402.
Where [20] appears, read: convalescent donor C5, 41.430 weeks since PCR-confirmed diagnosis, peptide-pulsed C1R-A2402.
The mark [21] stands for this setting: convalescent donor C6, 20.000 weeks since PCR-confirmed diagnosis, peptide-pulsed C1R-A2402.
Where [22] appears, read: convalescent donor C7, 21.710 weeks since PCR-confirmed diagnosis, peptide-pulsed C1R-A2402.
The mark [23] stands for this setting: convalescent donor C8, 47.860 weeks since PCR-confirmed diagnosis, peptide-pulsed C1R-A2402.
Setting [24] is: convalescent donor C9, 21.860 weeks since PCR-confirmed diagnosis, peptide-pulsed C1R-A2402.
[25] abbreviates: convalescent donor C10, 24.570 weeks since PCR-confirmed diagnosis, peptide-pulsed C1R-A2402.
[26] abbreviates: convalescent donor C11, 24.290 weeks since PCR-confirmed diagnosis, peptide-pulsed C1R-A2402.
Where [27] appears, read: vaccinated donor V1, 19.000 weeks since 2nd dose, C1R-A2402 pre-pulsed with 1 μM peptide.
The mark [28] stands for this setting: vaccinated donor V2, 9.570 weeks since 2nd dose, C1R-A2402 pre-pulsed with 1 μM peptide.
Where [29] appears, read: vaccinated donor V3, 8.860 weeks since 2nd dose, C1R-A2402 pre-pulsed with 1 μM peptide.
Where [30] appears, read: vaccinated donor V4, 10.430 weeks since 2nd dose, C1R-A2402 pre-pulsed with 1 μM peptide.
Where [31] appears, read: vaccinated donor V5, 10.570 weeks since 2nd dose, C1R-A2402 pre-pulsed with 1 μM peptide.
[32] abbreviates: vaccinated donor V6, 9.570 weeks since 2nd dose, C1R-A2402 pre-pulsed with 1 μM peptide.
[33] abbreviates: vaccinated donor V7, 10.140 weeks since 2nd dose, C1R-A2402 pre-pulsed with 1 μM peptide.
The mark [34] stands for this setting: vaccinated donor V8, 9.860 weeks since 2nd dose, C1R-A2402 pre-pulsed with 1 μM peptide.
Setting [35] is: vaccinated donor V9, 20.570 weeks since 2nd dose, C1R-A2402 pre-pulsed with 1 μM peptide.
The mark [36] stands for this setting: vaccinated donor V10, 2.000 weeks since 2nd dose, C1R-A2402 pre-pulsed with 1 μM peptide.
[37] abbreviates: vaccinated donor V11, 1.430 weeks since 2nd dose, C1R-A2402 pre-pulsed with 1 μM peptide.
Setting [38] is: vaccinated donor V12, 1.000 weeks since 2nd dose, C1R-A2402 pre-pulsed with 1 μM peptide.
The mark [39] stands for this setting: vaccinated donor V13, 9.000 weeks since 2nd dose, C1R-A2402 pre-pulsed with 1 μM peptide.
Where [40] appears, read: vaccinated donor V14, 2.000 weeks since 2nd dose, C1R-A2402 pre-pulsed with 1 μM peptide.
The mark [41] stands for this setting: vaccinated donor V15, 6.860 weeks since 2nd dose, C1R-A2402 pre-pulsed with 1 μM peptide.
[42] abbreviates: vaccinated donor V16, 8.860 weeks since 2nd dose, C1R-A2402 pre-pulsed with 1 μM peptide.
The mark [43] stands for this setting: vaccinated donor V17, 4.140 weeks since 2nd dose, C1R-A2402 pre-pulsed with 1 μM peptide.
[44] abbreviates: Suppl. Fig. 3b (for Fig. 4a, 4b), peptide(-) 14.8, 26 °C (Maximum) 32.7.

As for MYVKWPWYV [HKU1], the “sensitivity of S-QI9-specific T cells for the peptide compared with the SARS-CoV-2 S-QI9 epitope (in words)” value in assay [1] is “higher sensitivity”. In addition, the “number of S-QI9-specific T cell populations that effectively recognized the peptide” value in assay [1] (setting [3]) came to 13. Further, the “MFI, HLA-A2402 (APC), representative staining” value (“MFI, HLA-A2402 (APC)” for short) at HLA-A*24:02 (setting [4]) came out at 49.8. In addition, at HLA-A*24:02 (approximately, peptide 0.03 to 10 μM), the “affinity for HLA-A*24:02, times weaker than that of S-QI9” value is listed as 10–30 times. Further, the “% Mean Fluoresence” value in assay [2] (setting [5]) is on record as 100%; in assay [2] (setting [6]), 100%; in assay [2] (setting [7]), 100%; in assay [2] (setting [8]), 69.2%; in assay [2] (setting [9]) it was 72.5%; in assay [2] (setting [10]), 68.4%. Moreover, the “% Mean Fluoresence” value in assay [2] (setting [11]) is reported as 38.6%; in assay [2] (setting [12]), 43%; in assay [2] (setting [13]), 37.4%; in assay [2] (setting [14]) it was 12.8%; in assay [2] (setting [15]), 14%; in assay [2] (setting [16]), 10%. Also, the “stability of the HLA-A*24:02-peptide complex (in words)” value (shortened to “stability”) in assay [2] is reported as “weaker than that of the HLA-A*24:02-S-QI9 peptide complex”.

Consider NYIKWPWWV [NL63], for which the “sensitivity of S-QI9-specific T cells for the peptide compared with the SARS-CoV-2 S-QI9 epitope (in words)” value in assay [1] is reported as “much lower sensitivity”. Further, in assay [1] (setting [3]), the “number of individuals whose S-QI9-specific T cells moderately recognized the peptide” value was 7. For the same sequence, in assay [1] (setting [3]), the “number of individuals whose S-QI9-specific T cells uniformly recognized variant peptide and S-QI9” value was 2. Moreover, the “number of individuals whose S-QI9-specific bulk T cells exhibited no or very weak recognition” value in assay [1] (setting [3]) is 4. Also, at HLA-A*24:02, the “affinity for HLA-A*24:02 (in words)” value is listed as “substantially weaker”. For the same sequence, the “MFI, HLA-A2402 (APC)” value on HLA-A*24:02 (setting [4]) turned out to be 16.2. Also, the “% Mean Fluoresence” value is listed as 100% in assay [2] (setting [5]); 100% in assay [2] (setting [6]); 100% in assay [2] (setting [7]); 18.2% in assay [2] (setting [8]); 44% in assay [2] (setting [9]); 7.4% in assay [2] (setting [10]). For the same sequence, the “% Mean Fluoresence” value in assay [2] (setting [11]) was -22.6%; in assay [2] (setting [12]), 35.4%; in assay [2] (setting [13]) it was -0.6%; in assay [2] (setting [14]), 18.3%; in assay [2] (setting [15]) it was -7.8%; in assay [2] (setting [16]), 2%. Moreover, in assay [2], the “stability” value is given as “substantially weaker”.

For TYIKWPWWV [229E], the “sensitivity of S-QI9-specific T cells for the peptide compared with the SARS-CoV-2 S-QI9 epitope (in words)” value in assay [1] is reported as “much lower sensitivity”. Moreover, the “number of individuals whose S-QI9-specific T cells moderately recognized the peptide” value in assay [1] (setting [3]) came to 7. Further, in assay [1] (setting [3]), the “number of individuals whose S-QI9-specific T cells uniformly recognized variant peptide and S-QI9” value is reported as 2. In addition, in assay [1] (setting [3]), the “number of individuals whose S-QI9-specific bulk T cells exhibited no or very weak recognition” value is given as 4. Also, the “MFI, HLA-A2402 (APC)” value on HLA-A*24:02 (setting [4]) is given as 41.6. In addition, the “% Mean Fluoresence” value in assay [2] (setting [5]) amounted to 100%; in assay [2] (setting [6]), 100%; in assay [2] (setting [7]), 100%; in assay [2] (setting [8]) it was 44.6%; in assay [2] (setting [9]) it was 48.7%; in assay [2] (setting [10]), 47.1%. Also, the “% Mean Fluoresence” value in assay [2] (setting [11]) was 19.2%; in assay [2] (setting [12]) it was 17%; in assay [2] (setting [13]), 16.5%; in assay [2] (setting [14]) it was -1.1%; in assay [2] (setting [15]) it was -0.2%; in assay [2] (setting [16]), -1.9%. In addition, the “stability” value in assay [2] is given as “weaker than that of the HLA-A*24:02-HKU1 or HLA-A*24:02-OC43 peptide complexes”.

Turning to YYHKNNKSW [S-YW9], the “IFNg-producing cells among CD8 T cells (%)” value in assay [1] (setting [17]) was 0.653%; in assay [1] (setting [18]), 0.000%; in assay [1] (setting [19]), 0.000%; in assay [1] (setting [20]), 0.000%; in assay [1] (setting [21]), 0.000%; in assay [1] (setting [22]), 0.140%. In addition, the “IFNg-producing cells among CD8 T cells (%)” value in assay [1] (setting [23]) was 0.310%; in assay [1] (setting [24]), 0.000%; in assay [1] (setting [25]), 0.000%; in assay [1] (setting [26]), 0.550%; in assay [1] (setting [27]), 0.268%; in assay [1] (setting [28]), 0%. Moreover, the “IFNg-producing cells among CD8 T cells (%)” value in assay [1] (setting [29]) came out at 0.343%; in assay [1] (setting [30]), 0%; in assay [1] (setting [31]) it was 0.139%; in assay [1] (setting [32]) it was 0.061%; in assay [1] (setting [33]) it was 0.182%; in assay [1] (setting [34]), 0.035%. Further, the “IFNg-producing cells among CD8 T cells (%)” value in assay [1] (setting [35]) came out at 0.232%; in assay [1] (setting [36]) it was 0%; in assay [1] (setting [37]), 0.769%; in assay [1] (setting [38]), 0%; in assay [1] (setting [39]) it was 0%; in assay [1] (setting [40]), 0%. Besides, the results for the “IFNg-producing cells among CD8 T cells (%)” value in assay [1] (setting [41]), in assay [1] (setting [42]) and in assay [1] (setting [43]) were 0.709%, 0.019% and 0.154%, respectively. For the same sequence, the “MFI, HLA-A2402 (APC)” value at HLA-A*24:02 (setting [44]) is reported as 10.2. Moreover, the “binding to HLA-A*24:02 (in words)” value at HLA-A*24:02 ([…], 16 peptides tested at 100 μM) is listed as “did not bind”.

Regarding YYVGYLQPRTF [S-YF11], the “IFNg-producing cells among CD8 T cells (%)” value is given as 0.461% in assay [1] (setting [17]); 0.120% in assay [1] (setting [18]); 0.300% in assay [1] (setting [19]); 0.738% in assay [1] (setting [20]); 0.200% in assay [1] (setting [21]); 0.450% in assay [1] (setting [22]). Also, the “IFNg-producing cells among CD8 T cells (%)” value in assay [1] (setting [23]) was determined as 0.930%; in assay [1] (setting [24]), 0.000%; in assay [1] (setting [25]), 0.090%; in assay [1] (setting [26]), 0.000%; in assay [1] (setting [27]), 0.469%; in assay [1] (setting [28]), 0.861%. The “IFNg-producing cells among CD8 T cells (%)” value is 0.031% in assay [1] (setting [29]); 0% in assay [1] (setting [30]); 0% in assay [1] (setting [31]); 0.019% in assay [1] (setting [32]); 0% in assay [1] (setting [33]); 0% in assay [1] (setting [34]). For the same sequence, the “IFNg-producing cells among CD8 T cells (%)” value in assay [1] (setting [35]) is 0%; in assay [1] (setting [36]) it was 0%; in assay [1] (setting [37]) it was 0%; in assay [1] (setting [38]), 0%; in assay [1] (setting [39]) it was 0.015%; in assay [1] (setting [40]), 0%. Besides, the entries for the “IFNg-producing cells among CD8 T cells (%)” value in assay [1] (setting [41]), in assay [1] (setting [42]) and in assay [1] (setting [43]) were 0.234%, 0.141% and 0.134%, respectively. Also, on HLA-A*24:02 (setting [44]), the “MFI, HLA-A2402 (APC)” value amounted to 26.7.
